In data set [1] the test system is Human immunodeficiency virus 1. Nature of the data set: Antiviral activity against HIV1 3B infected in human MT2 cells assessed as p24 antigen level after 4 days by ELISA. The following applies: Human immunodeficiency virus 1, 3B, MT2, 96 h. Type of data set: functional, organism-based. In general terms: In an ELISA, binding on a coated surface is turned into a signal by an enzyme label.

A further data set deals with MT2. The note with it: human.
The nature of data set [2]: Therapeutic index, ratio of CC50 for human MT2 cells to EC50 for HIV1 3B. The following applies: read-out: TI. The format is cell-based.
The test system of data set [3] is Human immunodeficiency virus 1. Nature of the data set: Antiviral activity against HIV1 3B infected in human MT2 cells assessed as p24 antigen level at their respective CC50 concentration after 4 days by ELISA. The format is functional, organism-based.

What is called EC50 is the concentration at which the effect is half-maximal.

Description for MT2: Cytotoxicity against human MT2 cells by XTT assay

Regarding `C=C(C)[C@@H]1CC[C@]2(C(=O)N3CCC(CCCC(=O)O)CC3)CC[C@]3(C)[C@H](CC[C@@H]4[C@@]5(C)CC[C@H](OC(=O)CCC(C)(C)C(=O)O)C(C)(C)[C@@H]5CC[C@]43C)[C@@H]12`, in data set [1], the EC50 amounted to 0.23 µM. Besides, in the data set with MT2, the CC50 is 33.2 µM. For the same compound, the selectivity ratio in data set [2] was determined as 145.

With `C=C(CO)[C@@H]1CC[C@]2(C(=O)NCCCCCCCC(=O)O)CC[C@]3(C)[C@H](CC[C@@H]4[C@@]5(C)CC[C@H](O)C(C)(C)[C@@H]5CC[C@]43C)[C@@H]12`, the EC50 in data set [1] was found to be 14.8 µM. This compound also had a CC50 in the data set with MT2 of 40.7 µM. The selectivity ratio in data set [2] was determined as 2.8.

Regarding `C=C(COCCN1CCOCC1)[C@@H]1CC[C@]2(C(=O)NCCCCCCCC(=O)O)CC[C@]3(C)[C@H](CC[C@@H]4[C@@]5(C)CC[C@H](O)C(C)(C)[C@@H]5CC[C@]43C)[C@@H]12`, the EC50 in data set [1] stood at 1.8 µM. In addition, the CC50 in the data set on MT2 worked out at 24.8 µM. In data set [2], the selectivity ratio worked out at 13.8.

In turn, `C=C(C)[C@@H]1CC[C@]2(C(=O)N[C@@H](CC(C)C)C(=O)O)CC[C@]3(C)[C@H](CC[C@@H]4[C@@]5(C)CC[C@H](O)C(C)(C)[C@@H]5CC[C@]43C)[C@@H]12` yielded a CC50 in the data set on MT2 of 29.8 µM. Also, the EC50 result in data set [3] is listed as “Not Active”.

Take `C=C(CON1CCOCC1)[C@@H]1CC[C@]2(C(=O)N[C@@H](CC(C)C)C(=O)O)CC[C@]3(C)[C@H](CC[C@@H]4[C@@]5(C)CC[C@H](O)C(C)(C)[C@@H]5CC[C@]43C)[C@@H]12`: the CC50 in the data set on MT2 was 27.5 µM. Besides, the EC50 result in data set [3] was “Not Active”.

`C=C(COCCc1ccc(Cl)cc1)[C@@H]1CC[C@]2(C(=O)N[C@@H](CC(C)C)C(=O)O)CC[C@]3(C)[C@H](CC[C@@H]4[C@@]5(C)CC[C@H](O)C(C)(C)[C@@H]5CC[C@]43C)[C@@H]12`: the EC50 in data set [1] stood at 27.8 µM. The compound further registered a CC50 with MT2 of 34.6 µM. Besides, in data set [2], the selectivity ratio came out at 1.2.

As to `C=C(COCCN1CCOCC1)[C@@H]1CC[C@]2(C(=O)N[C@@H](CC(C)C)C(=O)O)CC[C@]3(C)[C@H](CC[C@@H]4[C@@]5(C)CC[C@H](O)C(C)(C)[C@@H]5CC[C@]43C)[C@@H]12`, in data set [1], the EC50 is 26.6 µM. The compound also returned a CC50 in the data set with MT2 of 35.8 µM. Further, the selectivity ratio in data set [2] is 1.4.

Take `C=C(CBr)[C@@H]1CC[C@]2(C(=O)N[C@@H](CC(C)C)C(=O)O)CC[C@]3(C)[C@H](CC[C@@H]4[C@@]5(C)CC[C@H](OC(=O)CC(C)(C)C(=O)O)C(C)(C)[C@@H]5CC[C@]43C)[C@@H]12`: the EC50 in data set [1] was determined as 0.011 µM. In the data set on MT2, this compound returned a CC50 of 33.2 µM. The selectivity ratio in data set [2] came to 3020.

Consider `C=C(CBr)[C@@H]1CC[C@]2(C(=O)NCCCCCCCC(=O)O)CC[C@]3(C)[C@H](CC[C@@H]4[C@@]5(C)CC[C@H](O)C(C)(C)[C@@H]5CC[C@]43C)[C@@H]12`, for which the EC50 in data set [1] came to 2.3 µM. For the same compound, in the data set with MT2, the CC50 was 36.9 µM. Further, in data set [2], the selectivity ratio was determined as 16.1.

On to `C=C(C)[C@@H]1CC[C@]2(C(=O)N3CCC(CCCC(=O)O)CC3)CC[C@]3(C)[C@H](CC[C@@H]4[C@@]5(C)CC[C@H](OC(=O)CC(C)(C)C(=O)O)C(C)(C)[C@@H]5CC[C@]43C)[C@@H]12`, for which the EC50 in data set [1] worked out at 0.015 µM. This compound returned a CC50 in the data set on MT2 of 20.8 µM. Moreover, the selectivity ratio in data set [2] came out at 1390.

As for `Cc1cn([C@H]2C[C@H](N=[N+]=[N-])[C@@H](CO)O2)c(=O)[nH]c1=O` [ZIDOVUDINE], in the data set on MT2, the CC50 turned out to be 1870 µM.

Regarding `C=C(C)[C@@H]1CC[C@]2(C(=O)N[C@@H](CC(C)C)C(=O)O)CC[C@]3(C)[C@H](CC[C@@H]4[C@@]5(C)CC[C@H](NC(=O)CC(C)(C)C(=O)O)C(C)(C)[C@@H]5CC[C@]43C)[C@@H]12`, the EC50 in data set [1] was determined as 13.2 µM. Also, the CC50 in the data set on MT2 was 35.9 µM. For the same compound, in data set [2], the selectivity ratio is 2.7.

The values are drawn from ChEMBL document CHEMBL1138499, “Anti-AIDS agents. 78. Design, synthesis, metabolic stability assessment, and antiviral evaluation of novel betulinic acid derivatives as potent anti-human immunodeficiency virus (HIV) agents” (J Med Chem, 2009).
